The values that follow come from patent US5235061A, “Fungicidal (1H-1,2,4-triazolyl)disilaalkanes” (priority 1991, dated 1993).

What all share (assay): In vitro percent disease control (radii of spore growth on agar)
Format in all cases: cell-based

For one data set, the system named is Fusarium moniliforme. The protocol: (§1) The compounds of this invention were dissolved respectively in acetone in an amount equal to 10% of the final volume and then in purified water at the concentration of 100 ppm and 50 ppm.
(§2) Each of the solution was mixed with potato-sucrose-agar medium in a 6" petri dish and one of the fungi was spotted at the center of the dish. The dish was incubated in growth room for several days. The percent disease control was derived from the radii of spore growth. The screening tests in vitro condition are well-known to those skilled in the art.
(§3) The following fungi were used for the screening.
8) Fu.mo.; Fusarium moniliforme

For data set [1], the system named is Botryosphaeria dothidea Macrophoma sp. As to conditions: Botryosphaeria dothidea, read-out: % controlled, Bo.do (Ma.). On the procedure:
as §1, §2, §3
4) Bo.do(Ma); Botryosphaeria dothidea Macrophoma sp.

The next data set relates to Botry tris cinerea. The conditions noted are these: read-out: % controlled, Bo ci. On the procedure:
as §1, §2, §3
10) Bo.ci.; Botry tris cinerea

For the next data set, the system named is Phytophthora capsisi. As to conditions: Phytophthora, read-out: % controlled, Phy ca. The protocol:
as §1, §2, §3
2) Phy. ca.; Phytophthora capsisi

Another data set has as its system Rhizoctonia solani. The conditions noted are these: Rhizoctonia solani, read-out: % controlled, Rhy. so. The protocol:
as §1, §2, §3
7) Rhi.so.; Rhizoctonia solani

In another data set the test system is Alternaria mali. The conditions noted are these: Alternaria mali, read-out: % controlled, Al. The protocol:
as §1, §2, §3

Another data set relates to Rhizopus sp. The conditions noted are these: Rhizopus, read-out: % controlled, Rhi. sp. On the procedure:
as §1, §2, §3

In the next data set the test system is Pyricalaria oryzae. The conditions noted are these: for inhibition of growth at 50 ppm: read-out: % controlled, Py. or., 50 ppm; for inhibition of growth at 100 ppm: read-out: % controlled, Py. or., 100 ppm. On the procedure:
as §1, §2, §3
6) Py.or.; Pyricalaria oryzae

The subject of a further data set is Physalospora baccae. As to conditions: read-out: % controlled, Phy ba. On the procedure:
as §1, §2, §3
3) Phy. ba.; Physalospora baccae

The next data set relates to Glomerella cingulata. The conditions noted are these: Colletotrichum gloeosporioides, read-out: % controlled, Glo. On the procedure: as §1, §2, §3
5) Glo.; Glomerella cingulata

Regarding `C=CC[Si](C)(Cn1cncn1)C[Si](CC=C)(c1ccccc1)c1ccc(F)cc1` (centres unmarked) [6-(4-fluorophenyl)-4-methyl-6-phenyl-4,6-disila-4-(1H-1,2,4-triazol-1-ylmethyl)-1,8-nonadiene], the “% controlled, Fu. mo.” value in the data set on Fusarium moniliforme (50 ppm) stood at 60%; in the data set with Fusarium moniliforme (100 ppm), 66%. Besides, the inhibition of growth at 50 ppm worked out at 79% in data set [1]; 60% with Botry tris cinerea; 65% with Phytophthora capsisi; 96% in the data set on Rhizoctonia solani; 55% in the data set with Alternaria mali; 50% in the data set on Rhizopus sp.. In addition, the inhibition of growth at 50 ppm turned out to be 90% in the data set on Pyricalaria oryzae, 82% with Physalospora baccae and 80% in the data set with Glomerella cingulata. In addition, the inhibition of growth at 100 ppm in [1] was 79%; in the data set on Botry tris cinerea, 70%; with Phytophthora capsisi it was 70%; with Rhizoctonia solani it was 96%; in the data set with Alternaria mali, 92%; in the data set with Rhizopus sp., 50%. Further, the inhibition of growth at 100 ppm in the data set with Pyricalaria oryzae came to 90%; in the data set with Physalospora baccae, 82%; with Glomerella cingulata, 85%.

As to `C=CC[Si](C)(Cn1cncn1)C[Si](CC=C)(CC=C)c1ccc(F)cc1` (centres unmarked) [6-(4-fluorophenyl)-4-methyl-6-(2-propenyl)-4,6-disila-4-(1H-1,2,4-triazol-1-ylmethyl)-1,8-nonadiene], the “% controlled, Fu. mo.” value in the data set on Fusarium moniliforme (50 ppm) and with Fusarium moniliforme (100 ppm) was 60% in each case. Besides, the inhibition of growth at 50 ppm was determined as 79% in data set [1]; 90% in the data set with Botry tris cinerea; 55% with Phytophthora capsisi; 96% in the data set on Rhizoctonia solani; 78% in the data set on Alternaria mali; 56% with Rhizopus sp.. Further, the inhibition of growth at 50 ppm came to 100% with Pyricalaria oryzae, 90% with Physalospora baccae and 82% in the data set on Glomerella cingulata. In addition, the inhibition of growth at 100 ppm is 90% in data set [1]; 95% in the data set with Botry tris cinerea; 60% with Phytophthora capsisi; 96% with Rhizoctonia solani; 90% in the data set on Alternaria mali; 58% with Rhizopus sp.. In addition, the inhibition of growth at 100 ppm in the data set on Pyricalaria oryzae worked out at 100%; with Physalospora baccae it was 95%; with Glomerella cingulata, 85%.

In the case of `C=CC[Si](C[Si](C)(Cn1cncn1)c1ccc(F)cc1)(c1ccc(F)cc1)c1ccc(F)cc1` (centres unmarked) [4,4,6-tris(4-fluorophenyl)-6-methyl-4,6-disila-7-(1H-1,2,4-triazole-1-yl)-1-heptane], the “% controlled, Fu. mo.” value came out at 58% in the data set on Fusarium moniliforme (50 ppm) and 63% with Fusarium moniliforme (100 ppm). For the same molecule, the inhibition of growth at 50 ppm in data set [1] is 74%; in the data set with Botry tris cinerea, 69%; in the data set on Phytophthora capsisi, 50%; with Rhizoctonia solani it was 78%; with Alternaria mali, 63%; with Rhizopus sp., 19%. Besides, the inhibition of growth at 50 ppm was 100% in the data set on Pyricalaria oryzae, 53% in the data set on Physalospora baccae and 71% in the data set with Glomerella cingulata. Further, the inhibition of growth at 100 ppm is 78% in data set [1]; 66% with Botry tris cinerea; 60% in the data set with Phytophthora capsisi; 78% in the data set with Rhizoctonia solani; 72% with Alternaria mali; 43% in the data set with Rhizopus sp.. In addition, the inhibition of growth at 100 ppm in the data set with Pyricalaria oryzae worked out at 100%; with Physalospora baccae, 74%; in the data set on Glomerella cingulata it was 77%.

For the molecule `C=CC[Si](C)(Cn1cncn1)C[Si](CC=C)(CC=C)CC=C` (centres unmarked) [4-methyl-6-bis(2-propenyl)-4,6-disila-4-(1H-1,2,4-triazol-1-ylmethyl)-1,8-nonadiene], the “% controlled, Fu. mo.” value is on record as 46% in the data set on Fusarium moniliforme (50 ppm) and 65% with Fusarium moniliforme (100 ppm). Also, the inhibition of growth at 50 ppm in data set [1] was determined as 70%; with Botry tris cinerea it was 60%; in the data set with Phytophthora capsisi, 45%; with Rhizoctonia solani it was 96%; in the data set on Alternaria mali it was 75%; in the data set on Rhizopus sp., 60%. Further, the inhibition of growth at 50 ppm in the data set on Pyricalaria oryzae was found to be 100%; in the data set with Physalospora baccae it was 80%; in the data set on Glomerella cingulata, 82%. The inhibition of growth at 100 ppm in data set [1] turned out to be 75%; in the data set with Botry tris cinerea, 80%; in the data set on Phytophthora capsisi, 50%; in the data set on Rhizoctonia solani, 96%; with Alternaria mali it was 95%; in the data set on Rhizopus sp., 80%. The inhibition of growth at 100 ppm worked out at 100% with Pyricalaria oryzae, 85% with Physalospora baccae and 87% in the data set on Glomerella cingulata.

With `C=CC[Si](C)(Cn1cncn1)C[Si](CC=C)(c1ccccc1)c1ccc(-c2ccccc2)cc1` (centres unmarked) [4-methyl-6-phenyl-6-(4-phenylphenyl)-4,6-disila-4-(1H-1,2,4-triazol-1-ylmethyl)-1,8-nonadiene], the “% controlled, Fu. mo.” value in the data set on Fusarium moniliforme (50 ppm) and in the data set on Fusarium moniliforme (100 ppm) was 100% in each case. Further, the inhibition of growth at 50 ppm in data set [1] turned out to be 100%; in the data set with Botry tris cinerea, 77%; in the data set on Phytophthora capsisi, 38%; in the data set with Rhizoctonia solani it was 80%; with Alternaria mali it was 72%; with Rhizopus sp., 40%. Besides, the inhibition of growth at 50 ppm with Pyricalaria oryzae amounted to 100%; in the data set on Physalospora baccae it was 84%; with Glomerella cingulata it was 100%. The inhibition of growth at 100 ppm in [1] was found to be 100%; in the data set on Botry tris cinerea it was 100%; in the data set with Phytophthora capsisi it was 60%; in the data set with Rhizoctonia solani it was 100%; in the data set on Alternaria mali it was 100%; with Rhizopus sp., 56%. Besides, the inhibition of growth at 100 ppm with Pyricalaria oryzae, in the data set on Physalospora baccae and in the data set with Glomerella cingulata was 100% in each case.

With `COc1ccc([Si](C)(Cn2cncn2)C[Si](C)(C)c2ccc(Cl)cc2)cc1` (centres unmarked) [4-(4-chlorophenyl)-2-(4-methoxyphenyl)-2,4-dimethyl-2,4-disila-1-(1H-1,2,4-triazol-1-yl)pentane], the “% controlled, Fu. mo.” value was 28% with Fusarium moniliforme (50 ppm) and 41% with Fusarium moniliforme (100 ppm). In addition, the inhibition of growth at 50 ppm in data set [1] is 34%; in the data set on Botry tris cinerea, 40%; with Phytophthora capsisi, 43%; in the data set on Rhizoctonia solani, 100%; in the data set on Alternaria mali, 30%; in the data set on Rhizopus sp., 32%. Further, the inhibition of growth at 50 ppm in the data set with Pyricalaria oryzae turned out to be 100%; in the data set with Physalospora baccae, 50%; in the data set on Glomerella cingulata, 56%. Also, the inhibition of growth at 100 ppm amounted to 66% in data set [1]; 80% in the data set with Botry tris cinerea; 59% with Phytophthora capsisi; 100% in the data set with Rhizoctonia solani; 62% in the data set with Alternaria mali; 48% in the data set on Rhizopus sp.. The inhibition of growth at 100 ppm in the data set with Pyricalaria oryzae was found to be 100%; in the data set with Physalospora baccae, 60%; with Glomerella cingulata, 82%.

`C[Si](C)(C[Si](C)(Cn1cncn1)c1ccc(F)cc1)c1ccc(Cl)cc1` (centres unmarked) [4-(4-chlorophenyl)-2-(4-fluorophenyl)-2,4-dimethyl-2,4-disila-1-(1H-1,2,4-triazol-1-yl)pentane]: the figures for the “% controlled, Fu. mo.” value in the data set on Fusarium moniliforme (50 ppm) and in the data set on Fusarium moniliforme (100 ppm) were 67% and 69%, respectively. Further, the inhibition of growth at 50 ppm in [1] was 74%; in the data set with Botry tris cinerea it was 100%; in the data set on Phytophthora capsisi it was 43%; with Rhizoctonia solani, 93%; in the data set with Alternaria mali it was 84%; in the data set with Rhizopus sp., 59%. The inhibition of growth at 50 ppm was found to be 100% in the data set on Pyricalaria oryzae, 78% with Physalospora baccae and 0% in the data set with Glomerella cingulata. For the same molecule, the inhibition of growth at 100 ppm in [1] worked out at 86%; in the data set with Botry tris cinerea, 100%; in the data set on Phytophthora capsisi, 54%; in the data set on Rhizoctonia solani, 100%; in the data set with Alternaria mali it was 84%; in the data set on Rhizopus sp., 65%. The inhibition of growth at 100 ppm with Pyricalaria oryzae was found to be 100%; with Physalospora baccae, 82%; with Glomerella cingulata, 0%.
